Assay type in all cases: cell-based
Test [1] relates to A-549 (Lung carcinoma). The experiment in a line: MTT cytotoxicity assay, A-549. The following applies: Homo sapiens, A549, 24 h, 24 h incubation. The procedure: (§1) The cell lines A-549 (Lung carcinoma), CACO (Colorectal carcinoma), HCT-116 (Colon carcinoma), Hela (Cervical carcinoma), HepG-2 (Hepatocellular carcinoma), and MCF-7 (Breast carcinoma) were obtained from the Regional Center for Mycology and Biotechnology, Al-Azhar University, Cairo, Egypt.
(§2) The antitumor assay was carried out on the above cell lines as published by A Ooi et al., ‘A Guide to Transient Expression of Membrane Proteins in HEK-293 Cells for Functional Characterization”, Front. Physiol. 7:300, published online 19 Jul. 2016, for all of the extracts which have been obtained in section above (A, R, AL, APC, RPC, APB, RPB, AR &RR). Briefly, the cell lines were suspended in medium at a concentration of 5×10^4 cell/well in Corning® 96-well tissue culture plates and then incubated for 24 hr. The tested extracts were then added into 96-well plates (six replicates) to achieve seven concentrations for each extract. […] After incubation for 24 h, the numbers of viable cells were determined by the MTT assay method. […] Then, the optical density was measured at 590 nm with the microplate reader to determine the number of viable cells. The percentage of viability was calculated as: (ODt/ODc)×100%, where ODt is the mean optical density of wells treated with the tested sample and ODc is the mean optical density of untreated cells. […]

For test [2], the system named is CACO (Colorectal carcinoma). The experiment in a line: MTT cytotoxicity assay, CACO. To be noted: 24 h incubation. The method, then: as §1, §2
(Tetrazolium dyes change colour on reduction, which living cells bring about.)

The test system of test [3] is HCT-116 (Colon carcinoma). The experiment in a line: MTT cytotoxicity assay, HCT-116. The following applies: Homo sapiens, 24 h incubation. The procedure: as §1, §2
In test [4] the test system is HepG-2 (Hepatocellular carcinoma). The experiment in a line: MTT cytotoxicity assay, HepG-2. To be noted: Homo sapiens, HepG2, 24 h incubation. The procedure:
as §1, §2

Test [5] relates to MCF-7 (Breast carcinoma). The experiment in a line: MTT cytotoxicity assay, MCF-7. The following applies: Homo sapiens, MCF7, 24 h incubation. The method, then: as §1, §2

The IC50 is the concentration that gives 50% inhibition.

Structures can show the parent of a compound that is named as a salt.

For the compound `CC[C@]1(O)C[C@@H]2CN(CCc3c([nH]c4ccccc34)[C@@](C(=O)OC)(c3cc4c(cc3OC)N(C)[C@H]3[C@@](O)(C(=O)OC)[C@H](OC(C)=O)[C@]5(CC)C=CCN6CC[C@]43[C@@H]65)C2)C1` [Vinblastine sulfate], the IC50 in test [1] was determined as 30.3 ± 1.4 µg/mL; in test [2] (24 h), 24.6 ± 0.7 µg/mL; in test [3], 3.5 ± 0.2 µg/mL; in test [4], 2.93 ± 0.3 µg/mL; in test [5] it was 5.9 ± 0.4 µg/mL. For the same compound, the “IC50 CACO (Colorectal carcinoma)” value in test [2] was found to be 30.3 ± 1.4 µg/mL.

The record behind these values is patent US20190231841A1, “CENCHRUS CILIARIS L. AS AN ANTICANCER AGENT” (KING SAUD UNIVERSITY, priority 2018, published 2019).
